The source made the active and inactive calls.
How the values were obtained:
[1] = target: T1, Calpain-2 catalytic subunit (Sus scrofa, UniProt P43367); experiment: m-calpain protease blockers, concentration series – biochemical, fluorogenic peptide substrate, dose response (AID 1420); format: functional
T1 sequence (P43367 whole entry): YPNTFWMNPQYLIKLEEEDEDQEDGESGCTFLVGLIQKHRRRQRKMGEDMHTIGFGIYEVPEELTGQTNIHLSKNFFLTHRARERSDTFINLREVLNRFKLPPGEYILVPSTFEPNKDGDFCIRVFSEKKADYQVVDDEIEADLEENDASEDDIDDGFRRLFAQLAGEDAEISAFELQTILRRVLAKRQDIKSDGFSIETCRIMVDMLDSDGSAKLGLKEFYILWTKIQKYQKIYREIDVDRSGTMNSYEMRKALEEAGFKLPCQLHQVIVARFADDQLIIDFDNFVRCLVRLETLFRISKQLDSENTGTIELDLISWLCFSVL

[2] = luciferase reporter signal suppression in cells – H4 neuroglioma cells, luminescence, dose response (AID 1990); format: functional, cell-based
[3] = Luminescence Cell-Based Dose Response HTS to Identify Inhibitors of 5'UTR Stem-Loop Driven Prion Protein mRNA Translation in H4 Neuroglioblastoma Cells. [Related pubchem assays: 1827 (Project Summary), 1813 (Primary HTS)]; format: functional
[4] = alpha-synuclein stem-loop luciferase translation blockers – H4 neuroglioma cells, luminescence, confirmation (AID 1988); format: functional, cell-based
[5] = target: FAD-linked sulfhydryl oxidase ALR (Homo sapiens, UniProt P55789); experiment: ALR-catalysed DTT oxidation blockers – biochemical, H2O2 detection, luminescence, cherry-pick, dose response (AID 493248)
[6] = NIH-3T3 fibroblast cytotoxicity, dose response, cytotoxicity control, cell-based, fluorescence, Alamar Blue, secondary assay (AID 2327); format: functional;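 note: NIH-3T3 mouse fibroblasts cultured with fluconazole at 8 µg/mL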
[7] = fluconazole-exposed Candida albicans growth modulators – fluorescence, retest, confirmation (AID 2467); format: functional, cell-based
[8] = microbe, parasite or virus in culture; format: functional; settings: Mycobacterium tuberculosis
[9] = blockers of HIV-1 envelope-mediated cell-cell fusion – cherry-pick, dose response (AID 652057); format: functional, cell-based
[10] = HIV-1 AD8 envelope cell-cell fusion blockers – cherry-pick, dose response (AID 652062); format: functional, cell-based;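 note: luciferase signal from cell-cell fusion driven by HIV-1 clade B AD8 Env; potency is for inhibitors of fusion seen as a drop in luminescence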
[11] = target: T2, High affinity choline transporter 1 (Homo sapiens, UniProt Q9GZV3); experiment: human choline transporter blockers, potency – cell-based, 5-point CRC, membrane potential dye, dose response (AID 504840); format: functional
T2 sequence (Q9GZV3 whole entry): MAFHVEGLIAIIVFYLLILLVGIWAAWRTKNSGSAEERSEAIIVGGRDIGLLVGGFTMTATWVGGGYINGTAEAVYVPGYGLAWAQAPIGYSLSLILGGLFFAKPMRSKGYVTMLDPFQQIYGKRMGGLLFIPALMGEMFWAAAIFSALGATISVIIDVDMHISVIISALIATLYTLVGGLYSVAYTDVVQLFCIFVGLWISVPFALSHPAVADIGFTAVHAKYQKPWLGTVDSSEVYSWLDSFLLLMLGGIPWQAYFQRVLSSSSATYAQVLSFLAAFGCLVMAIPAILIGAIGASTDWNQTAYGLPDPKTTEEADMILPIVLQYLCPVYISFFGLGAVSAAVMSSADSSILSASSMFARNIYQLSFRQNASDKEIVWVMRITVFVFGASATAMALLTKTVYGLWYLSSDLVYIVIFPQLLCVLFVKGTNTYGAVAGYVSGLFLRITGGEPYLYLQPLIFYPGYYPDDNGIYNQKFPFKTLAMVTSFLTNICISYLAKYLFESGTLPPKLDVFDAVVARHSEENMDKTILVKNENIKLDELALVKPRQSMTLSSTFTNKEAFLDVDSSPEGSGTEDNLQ

[12] = target: T3, Carboxy-terminal domain RNA polymerase II polypeptide A small phosphatase 1 (Homo sapiens, UniProt Q9GZU7); experiment: CTDSP1 inhibitors, concentration-response, biochemical, absorbance readout, ultra-high-throughput screen actives (AID 540297); format: functional
T3 sequence (Q9GZU7 whole entry): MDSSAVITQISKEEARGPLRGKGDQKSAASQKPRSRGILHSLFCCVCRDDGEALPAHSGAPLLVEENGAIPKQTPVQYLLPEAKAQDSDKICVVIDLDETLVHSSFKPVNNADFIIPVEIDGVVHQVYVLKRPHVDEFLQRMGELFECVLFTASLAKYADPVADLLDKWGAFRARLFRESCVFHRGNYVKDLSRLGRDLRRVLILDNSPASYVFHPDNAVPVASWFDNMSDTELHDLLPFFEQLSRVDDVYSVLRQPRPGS

[13] = target: Cytochrome P450 2D6 (Homo sapiens, UniProt P10635);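 note: CYP2D6 member of a cytochrome P450 panel assay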
[14] = target: T4, Heat shock factor protein 1 (Mus musculus, UniProt P38532); experiment: enhancement of HSF1-driven luciferase signal – cell-based, NIH3T3, luminescence, dose retest, confirmation (AID 435004); format: functional;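 note: stress induced by proteasome inhibitor MG132 added 30 min after compound; luciferase reporter driven by HSF1 response element in NIH3T3 cells; actives raise luminescence as potentiators of the MG132 stress response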
T4 sequence (P38532 whole entry): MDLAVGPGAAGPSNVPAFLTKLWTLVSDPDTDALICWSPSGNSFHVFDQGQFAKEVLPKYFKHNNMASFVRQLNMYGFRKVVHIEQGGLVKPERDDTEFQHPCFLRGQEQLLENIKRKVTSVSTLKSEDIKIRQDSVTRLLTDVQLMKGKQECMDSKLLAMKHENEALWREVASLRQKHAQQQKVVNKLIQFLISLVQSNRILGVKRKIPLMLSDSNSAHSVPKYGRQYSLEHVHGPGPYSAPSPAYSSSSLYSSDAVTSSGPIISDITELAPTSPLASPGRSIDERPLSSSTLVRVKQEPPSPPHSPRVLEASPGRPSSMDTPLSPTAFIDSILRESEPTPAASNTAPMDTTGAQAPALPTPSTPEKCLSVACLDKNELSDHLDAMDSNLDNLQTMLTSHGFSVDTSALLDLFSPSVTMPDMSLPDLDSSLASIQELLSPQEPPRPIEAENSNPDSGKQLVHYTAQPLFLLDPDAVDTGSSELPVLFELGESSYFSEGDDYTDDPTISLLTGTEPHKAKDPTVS

[15] = target: Nonstructural protein 1 (Influenza A virus, UniProt Q194T2); format: functional, Influenza A virus (A/California/07/2009(H1N1))
[16] = tested on: Streptococcus sp. 'group A'; experiment: Streptococcus pyogenes SK(-)GAS viability under kanamycin – luminescence, BacTiterGlo, confirmation, counter-screen for streptokinase expression inhibitor project, dose response (AID 1900); format: functional, organism-based
[17] = target: T5, Streptokinase A (Streptococcus pyogenes serotype M1, UniProt P10520); experiment: viability-normalized secreted streptokinase activity reduction – plasminogen activation absorbance, OD405, dose response (AID 1914); format: functional, Streptococcus pyogenes M1 GAS;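 note: secreted streptokinase activity via plasminogen activation per viability signal from cell pellet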
T5 sequence (P10520 whole entry): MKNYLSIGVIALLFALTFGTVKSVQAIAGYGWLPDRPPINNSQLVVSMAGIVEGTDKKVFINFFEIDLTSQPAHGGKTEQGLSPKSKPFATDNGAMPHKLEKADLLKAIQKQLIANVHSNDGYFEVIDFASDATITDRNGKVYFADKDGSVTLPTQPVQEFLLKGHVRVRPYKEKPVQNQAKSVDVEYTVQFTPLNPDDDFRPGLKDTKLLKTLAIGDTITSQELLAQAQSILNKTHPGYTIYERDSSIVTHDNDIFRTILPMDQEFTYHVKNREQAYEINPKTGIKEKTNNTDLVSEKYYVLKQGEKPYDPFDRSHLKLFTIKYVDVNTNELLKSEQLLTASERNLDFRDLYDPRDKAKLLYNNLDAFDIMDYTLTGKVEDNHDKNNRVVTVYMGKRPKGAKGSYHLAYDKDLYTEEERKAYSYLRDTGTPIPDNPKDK

[18] = tested on: Streptococcus; experiment: GAS UMAA2166 growth inhibition – luminescence, BacTiterGlo, counter-screen for streptokinase expression inhibitor project, dose response (AID 1915); format: functional, organism-based;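 note: potency for reduction of bacterial viability or growth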
[19] = target: T6, Rac GTPase-activating protein 1 (Homo sapiens, UniProt Q9H0H5); experiment: blockers of MgcRacGAP-driven Rac1 GTP hydrolysis – biochemical, ADP Hunter fluorescence, primary and confirmatory, confirmation (AID 624330); format: functional
T6 sequence (Q9H0H5 whole entry): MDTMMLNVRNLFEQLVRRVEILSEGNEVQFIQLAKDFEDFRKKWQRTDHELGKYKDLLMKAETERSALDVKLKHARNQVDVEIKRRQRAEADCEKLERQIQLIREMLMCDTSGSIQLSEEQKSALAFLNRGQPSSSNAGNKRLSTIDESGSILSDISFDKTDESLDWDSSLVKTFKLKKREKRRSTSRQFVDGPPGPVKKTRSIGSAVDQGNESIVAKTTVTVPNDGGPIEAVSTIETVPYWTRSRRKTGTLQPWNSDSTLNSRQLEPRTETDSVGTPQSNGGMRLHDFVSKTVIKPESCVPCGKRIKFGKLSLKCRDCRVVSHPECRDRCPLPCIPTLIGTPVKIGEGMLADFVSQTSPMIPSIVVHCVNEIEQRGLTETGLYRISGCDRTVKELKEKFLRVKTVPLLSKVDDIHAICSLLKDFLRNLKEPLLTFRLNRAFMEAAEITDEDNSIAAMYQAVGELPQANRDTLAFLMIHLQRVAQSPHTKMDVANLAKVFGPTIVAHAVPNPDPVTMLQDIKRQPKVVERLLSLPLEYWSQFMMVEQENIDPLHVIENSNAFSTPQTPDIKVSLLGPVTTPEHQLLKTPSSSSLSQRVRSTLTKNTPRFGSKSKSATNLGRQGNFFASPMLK

[20] = HEK-293T viability loss after treatment – luminescence, T-cell screen hits, cytotoxicity control for TCR NF-kB inhibitor project, dose response (AID 489026); format: functional, cell-based;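 note: cells exposed to compound about 14 hours before the viability readout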
[21] = growth inhibition of yeast DHODH-expressing 3D7 parasites – SYBR Green, dry powder samples, dose response (AID 1159570); format: functional, cell-based;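 note: parasite growth measured after 72 hours of compound exposure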
[22] = P. falciparum Dd2 growth inhibitors, dose response, SYBR Green, cherry-picked samples (AID 1159567); format: functional, cell-based
[23] = Dd2 malaria parasite growth inhibition potency – SYBR Green, dry powder samples, dose response (AID 1159566); format: functional, cell-based;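 note: potency for growth inhibition with lower SYBR green DNA signal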
[24] = growth inhibition of PfATP4-mutant resistant parasites – NITD609-resistant line, SYBR Green, dry powder, dose response (AID 1159571); format: functional, cell-based;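 note: parasites synchronized at ring stage by sorbitol before testing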

Chain of Nonstructural protein 1 (Q194T2 whole entry): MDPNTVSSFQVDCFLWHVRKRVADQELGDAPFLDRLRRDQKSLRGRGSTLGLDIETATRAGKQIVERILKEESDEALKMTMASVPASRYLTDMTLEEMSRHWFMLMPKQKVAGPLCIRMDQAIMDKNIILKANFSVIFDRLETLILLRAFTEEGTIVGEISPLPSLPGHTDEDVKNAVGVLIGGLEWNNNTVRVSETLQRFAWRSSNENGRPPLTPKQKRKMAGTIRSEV
Chain of FAD-linked sulfhydryl oxidase ALR (P55789 whole entry): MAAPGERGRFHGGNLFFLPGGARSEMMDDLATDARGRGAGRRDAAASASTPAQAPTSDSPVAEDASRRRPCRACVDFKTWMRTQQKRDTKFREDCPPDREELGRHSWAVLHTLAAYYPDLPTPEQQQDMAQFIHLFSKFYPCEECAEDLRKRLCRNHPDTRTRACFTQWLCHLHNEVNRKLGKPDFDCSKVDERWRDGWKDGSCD
Chain of Cytochrome P450 2D6 (P10635 whole entry): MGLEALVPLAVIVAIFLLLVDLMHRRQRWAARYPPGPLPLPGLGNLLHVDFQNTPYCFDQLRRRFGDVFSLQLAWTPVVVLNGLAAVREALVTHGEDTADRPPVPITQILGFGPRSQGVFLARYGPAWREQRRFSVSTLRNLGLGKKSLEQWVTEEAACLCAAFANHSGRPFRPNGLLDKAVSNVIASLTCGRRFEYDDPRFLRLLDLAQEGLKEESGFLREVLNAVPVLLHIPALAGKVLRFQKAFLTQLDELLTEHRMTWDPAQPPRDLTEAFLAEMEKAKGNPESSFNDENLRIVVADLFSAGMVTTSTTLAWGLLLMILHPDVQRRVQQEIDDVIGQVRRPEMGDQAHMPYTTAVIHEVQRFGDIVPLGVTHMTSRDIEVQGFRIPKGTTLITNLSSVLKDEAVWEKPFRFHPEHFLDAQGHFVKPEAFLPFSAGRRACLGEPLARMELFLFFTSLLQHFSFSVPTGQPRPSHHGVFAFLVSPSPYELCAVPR

O=c1c2ccccc2nc(SCc2cn3ccsc3n2)n1-c1ccccc1F
IC50 [1]: < 0.4 µM (not active)

Cc1cccc(NC(S)=NCCSc2ccc(Cl)cc2)c1
EC50 [2]: > 120 µM (not active) | EC50 [3]: 62.6 µM (active) | EC50 [4]: 84.8 µM (active) | IC50 [1]: 3.87 µM (not active)

Cc1ccn2cc(-c3cccc(NC(=O)CCC(=O)O)c3)nc2c1
AC50 [5]: 0.618 µM (active)

Cc1ccc(C2C3=C(CC(C)(C)CC3=O)N=C3c4ccccc4C(=O)C32)cc1 (stereo not drawn)
EC50 [6]: 24 µM (active) | EC50 [7]: 1.01 µM (active) | CC50 [8]: > 40 µM (active)

O=C(c1ccc2c(c1)OCO2)N1CCN=C1SCc1cccnc1
AC50 [5]: 0.076 µM (active)

CC(=O)c1c(C)[nH]c(C(=O)OCC(=O)Nc2ccc(Cl)c(S(=O)(=O)N(C)C)c2)c1C
AC50 [9]: 2.76 µM (active) | AC50 [10]: 40.4 µM (active)

O=[N+]([O-])c1ccc2[nH]c3c(c2c1)CCCC3
AC50 [5]: 15.6 µM (active)

COc1ccc(/C=C2\N=C(c3ccccc3)N(c3ccc(C(=O)O)cc3)C2=O)cc1OC
IC50 [11]: 12.6 µM (active)

Cc1nc(SCC(=O)NC(=O)NC2CCCCC2)nc(C)c1C
IC50 [11]: 12.7 µM (active)

CC(C)C(=O)N1CCN(c2ccccc2N)CC1
IC50 [1]: 0.734 µM (not active)

O=C(COC(=O)c1ccccc1Nc1cccc(C(F)(F)F)c1)NCc1ccco1
IC50 [12]: 6.38 µM (active) | AC50 [13]: 10 µM (inconclusive)

CCCc1cc(C(=O)NN=C(S)NCc2ccccc2)cs1
IC50 [11]: 12.9 µM (active)

CC(=O)Oc1ccc(-c2cccc(C(=O)OCC(=O)N(C)c3ccccc3)c2)cc1
IC50 [1]: 14.2 µM (not active) | EC50 [14]: > 260 µM (inactive)

CCOc1ccc(-c2nc(C#N)c(N3CCN(Cc4ccccc4)CC3)o2)cc1
IC50 [15]: > 100 µM (active)

COCCn1c(-c2ccc(OC(F)(F)C(F)C(F)(F)F)cc2)nc2c1c(=O)[nH]c(=O)n2CC(C)C (stereo not drawn)
CC50 [8]: > 40 µM (active)

Cc1ccc(Cn2c(C(CO)Nc3nc(-c4ccc(F)cc4)cs3)nc3ccccc32)cc1 (stereo not drawn)
EC50 [16]: 5.27 µM (active) | EC50 [17]: > 150 µM (not active) | CC50 [8]: 28.5 µM (active) | EC50 [18]: 5.23 µM (active)

COc1ccc(C(=O)N2CCN(c3ncnc4c(-c5ccccc5)nsc34)CC2)cc1
IC50 [1]: 4.3 µM (not active)

C/C(=N\NC(=N)N)c1ccccc1
IC50 [11]: 13.5 µM (active)

COc1ccc(N=Nc2cc(OC)c(N)cc2OC)cc1
IC50 [15]: 35.3 µM (active) | IC50 [19]: 35.2 µM (active)

CCOc1ccccc1C(O)C1=CC(=O)c2ccccc2C1=O (stereo not drawn)
IC50 [12]: 4.16 µM (active)

CC(=O)N(C)c1ccc(OCC(O)CN(c2ccccc2C)S(=O)(=O)c2ccc(C)cc2)cc1 (stereo not drawn)
IC50 [11]: 11.8 µM (active)

C[C@H]1CN([C@@H](C)CO)C(=O)c2cc(NC(=O)Nc3ccc4c(c3)OCO4)ccc2O[C@H]1CN(C)S(=O)(=O)c1ccc(F)cc1
AC50 [9]: 15.2 µM (active) | AC50 [10]: 39 µM (active)

Cc1ccnc2c1ccc1cccnc12
IC50 [20]: > 80 µM (inactive) | IC50 [15]: 0.736 µM (active)

O=C(Cn1cncn1)N/N=C/c1cc([N+](=O)[O-])ccc1O
IC50 [15]: 3.9 µM (active)

Cc1cc(/C=N/NC(=O)C(=O)NCc2ccccn2)c(C)n1-c1cccc(Br)c1
IC50 [1]: < 0.4 µM (not active)

CC(C)NC(=O)Nc1ccc2c(c1)C(=O)N(C)[C@H]1CC[C@H](CC(=O)Nc3ccccc3)O[C@H]1CO2
AC50 [21]: 1.23 µM (active) | AC50 [22]: 1.25 µM (active) | AC50 [23]: 1.26 µM (active) | AC50 [24]: 1.23 µM (active)

From ChEMBL document CHEMBL1201862, “PubChem BioAssay data set” (2004)
